Measurements as given in PubChem BioAssay (NCI).
“And” between values parts separate entries of the source, which are not always exact repeats. Equal values may be shown once.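 All cell lines were grown in 96-well plates and treated with compound for 48 hours. Here, GI50 denotes the concentration required for 50% inhibition of growth. TGI marks complete inhibition of growth.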

Tests used:
Assay in all cases: DTP human tumour cell line panel, 48 h
[1] = system: OVCAR-4 ovarian
[2] = system: SW-620 colon
[3] = system: SK-MEL-5 melanoma
[4] = system: HOP-92 NSCLC
[5] = system: HT29 colon
[6] = system: RXF 393 renal
[7] = system: SN12C renal
[8] = system: OVCAR-5 ovarian
[9] = system: NCI-H460 lung
[10] = system: M19-MEL melanoma
[11] = system: A549 NSCLC
[12] = system: SK-OV-3 ovarian
[13] = system: OVCAR-3 ovarian
[14] = system: HCT-15 colon
[15] = system: K-562 leukemia
[16] = system: ACHN renal
[17] = system: UACC-257 melanoma
[18] = system: DLD-1 colon
[19] = system: M14 melanoma
[20] = system: XF 498 CNS
[21] = system: SF-539 CNS
[22] = system: NCI-H23 lung
[23] = system: UACC-62 melanoma
[24] = system: CAKI-1 renal
[25] = system: CCRF-CEM leukemia
[26] = system: RPMI-8226 leukemia
[27] = system: OVCAR-8 ovarian
[28] = system: IGROV1 ovarian
[29] = system: HCT-116 colon
[30] = system: DMS 114 small cell lung
[31] = system: 786-0 renal
[32] = system: SNB-19 CNS
[33] = system: A498 renal
[34] = system: MALME-3M melanoma
[35] = system: TK-10 renal
[36] = system: NCI-H522 lung
[37] = system: U251 CNS
[38] = system: KM12 colon
[39] = system: EKVX NSCLC
[40] = system: SF-295 CNS
[41] = system: NCI-H226 lung
[42] = system: MOLT-4 leukemia
[43] = system: LOX IMVI melanoma
[44] = system: HCC-2998 colon
[45] = system: RXF-631 renal
[46] = system: UO-31 renal
[47] = system: DMS 273 small cell lung
[48] = system: SK-MEL-2 melanoma
[49] = system: SNB-78 CNS
[50] = system: HL-60(TB) leukemia
[51] = system: HOP-62 NSCLC
[52] = system: KM20L2 colon
[53] = system: COLO 205 colon
[54] = system: SNB-75 CNS
[55] = system: SF-268 CNS
[56] = system: LXFL 529 NSCLC
[57] = system: SK-MEL-28 melanoma
[58] = system: SR leukemia

C/C(=C\C(C[C@](C)(O)C(O)CCC#C[Si](C)(C)C)S(=O)(=O)c1ccccc1)CC/C=C/CO[Si](C)(C)C(C)(C)C (some centres not stated)
TGI [1]: 27.9 µM
TGI [2]: 35.3 µM
TGI [3]: 28.1 µM
TGI [4]: 25.5 µM
TGI [5]: 12.7 µM
TGI [6]: 31.3 µM
TGI [7]: 19 µM
TGI [8]: 26.9 µM
TGI [9]: 27 µM
TGI [10]: 32.5 µM
TGI [11]: 30.2 µM
TGI [12]: 40.3 µM
TGI [13]: 29.6 µM
TGI [14]: 34.4 µM
TGI [15]: 29 µM
TGI [16]: 29.6 µM
TGI [17]: 32.5 µM
TGI [18]: 48.2 µM
TGI [19]: 34 µM
TGI [20]: 26.2 µM
TGI [21]: 37 µM
TGI [22]: 41.9 µM
TGI [23]: 33.9 µM
TGI [24]: 33 µM
TGI [25]: 28.9 µM
TGI [26]: 31.6 µM
TGI [27]: 33.6 µM
TGI [28]: 41 µM
TGI [29]: 26.6 µM
TGI [30]: 32.9 µM
TGI [31]: 31.5 µM
TGI [32]: 41.6 µM
TGI [33]: 31.9 µM
TGI [34]: 40.4 µM
TGI [35]: 37.7 µM
TGI [36]: 33 µM
TGI [37]: 26.5 µM
TGI [38]: 32.6 µM
TGI [39]: 38.4 µM
TGI [40]: 31.1 µM
TGI [41]: 38.8 µM
TGI [42]: 23.1 µM
TGI [43]: 28.7 µM
TGI [44]: 40.6 µM
TGI [45]: 23.9 µM
TGI [46]: 36.4 µM
TGI [47]: 30.6 µM
TGI [48]: 44.1 µM
TGI [49]: 35.6 µM
TGI [50]: 33.2 µM
TGI [51]: 39.2 µM
TGI [52]: 24 µM

COc1ccc(-c2oc3c(OC)c(OC)c(OC)c(O)c3c(=O)c2OC)cc1O
TGI [1]: > 100 µM
GI50 [2]: < 0.01 µM
TGI [2]: > 100 µM
GI50 [3]: < 0.01 µM
TGI [3]: 0.995 µM
TGI [5]: 36.8 µM
TGI [6]: 0.504 µM
GI50 [7]: < 0.01 µM
TGI [7]: > 100 µM
TGI [8]: > 100 µM
GI50 [9]: < 0.01 µM
TGI [9]: 0.138 µM
GI50 [10]: < 0.01 µM
TGI [10]: 31.8 µM
GI50 [11]: < 0.01 µM
TGI [11]: 12.3 µM
GI50 [12]: < 0.01 µM
TGI [12]: 0.783 µM and 0.419 µM
GI50 [13]: < 0.01 µM
TGI [53]: 23.5 µM
TGI [15]: 13.5 µM
GI50 [16]: 0.159 µM
TGI [16]: > 100 µM
GI50 [54]: < 0.01 µM
TGI [54]: < 0.01 µM
GI50 [17]: < 0.01 µM
TGI [17]: > 100 µM
GI50 [18]: 0.0674 µM
TGI [18]: > 100 µM
GI50 [19]: < 0.01 µM
TGI [20]: 0.68 µM
TGI [21]: 0.101 µM
GI50 [22]: < 0.01 µM
GI50 [23]: < 0.01 µM
TGI [23]: 19.8 µM
GI50 [24]: < 0.01 µM
TGI [24]: > 100 µM
TGI [25]: 11.4 µM
GI50 [27]: < 0.01 µM
TGI [27]: > 100 µM
GI50 [28]: 0.0358 µM
TGI [28]: 52.1 µM
GI50 [55]: < 0.01 µM
TGI [55]: 2.82 µM
TGI [30]: 0.0784 µM
GI50 [31]: < 0.01 µM
TGI [31]: 11.3 µM
TGI [33]: 5.93 µM
TGI [35]: 51 µM
TGI [36]: < 0.01 µM
GI50 [37]: < 0.01 µM
TGI [37]: 0.898 µM and 0.23 µM
GI50 [38]: 0.638 µM
TGI [38]: 10.3 µM
GI50 [39]: 0.317 µM
TGI [39]: > 100 µM
TGI [40]: 21.2 µM
TGI [42]: 12.7 µM
TGI [44]: 8.64 µM
TGI [45]: 35.8 µM
GI50 [56]: < 0.01 µM
TGI [56]: > 100 µM
GI50 [46]: < 0.01 µM
TGI [46]: 5.81 µM
TGI [47]: 16.3 µM
TGI [48]: 0.221 µM
TGI [57]: > 100 µM
GI50 [49]: < 0.01 µM
TGI [49]: > 100 µM
TGI [50]: < 0.01 µM
GI50 [51]: 0.0478 µM
TGI [51]: 0.877 µM and 4.75 µM
TGI [52]: 26.1 µM
GI50 [58]: < 0.01 µM
TGI [58]: 0.112 µM

CN/N=C(\C)C(CN1CCCCC1)C(C1=C(O)c2ccccc2OC1)c1ccccc1 (configuration not stated)
TGI [1]: > 100 µM
TGI [2]: > 100 µM
TGI [3]: > 100 µM
TGI [5]: > 100 µM
TGI [6]: > 100 µM
TGI [7]: > 100 µM
TGI [8]: > 100 µM
TGI [9]: > 100 µM
TGI [10]: > 100 µM
TGI [11]: > 100 µM
TGI [12]: > 100 µM
TGI [13]: > 100 µM
TGI [14]: > 100 µM
TGI [53]: > 100 µM
TGI [15]: > 100 µM
TGI [16]: > 100 µM
TGI [54]: > 100 µM
TGI [17]: > 100 µM
TGI [19]: > 100 µM
TGI [20]: > 100 µM
TGI [21]: > 100 µM
TGI [22]: > 100 µM
TGI [23]: > 100 µM
TGI [24]: > 100 µM
TGI [25]: > 100 µM
TGI [26]: > 100 µM
TGI [27]: > 100 µM
TGI [28]: > 100 µM
TGI [55]: > 100 µM
TGI [29]: > 100 µM
TGI [30]: > 100 µM
TGI [31]: > 100 µM
TGI [32]: > 100 µM
TGI [34]: > 100 µM
TGI [35]: > 100 µM
TGI [36]: > 100 µM
TGI [37]: > 100 µM
TGI [38]: > 100 µM
TGI [39]: > 100 µM
TGI [40]: > 100 µM
TGI [41]: > 100 µM
TGI [42]: > 100 µM
TGI [43]: > 100 µM
TGI [44]: > 100 µM
TGI [45]: > 100 µM
TGI [56]: > 100 µM
TGI [46]: > 100 µM
TGI [47]: > 100 µM
TGI [48]: > 100 µM
TGI [57]: > 100 µM
TGI [49]: > 100 µM
TGI [50]: > 100 µM
TGI [51]: > 100 µM
TGI [52]: > 100 µM
TGI [58]: > 100 µM
